This assay deals with T1, HIV-1 protease (Human immunodeficiency virus type 1 group M subtype B, UniProt P04585).
T1 construct: The protease (or proteinase), consisting of only 99 amino acids, is among the smallest enzymes known
As to the kind of experiment: In vitro HIV protease inhibitory assay (HIV Protease FITC Assay). The class given is biochemical. The note with it: for inhibition at 0.41 µM: HIV-1 Dose 0.410 uM; for inhibition at 1.23 µM: HIV-1 Dose 1.230 uM; for inhibition at 3.7 µM: HIV-1 Dose 3.700 uM; for inhibition at 11 µM: HIV-1 Dose 11.000 uM; for inhibition at 33 µM: HIV-1 Dose 33.000 uM. How it is done:
The HIV protease screening assay is based on a fluorescently labeled substrate which can be resolved from nonlabeled cleavage product using avidin-polystyrene particles, 0.7-0.9 µm. The substrate is biotinylated at the amino terminal arginine and fluorescently labeled with fluorescein isothiocynate (FITC) at the carboxyl terminal lysine. […] Substrate (20 µl of 0.2 µM), sample (10 µl of desired concentraion), and enzyme (10 µl of 0.1 µM) are added to a 96 well pandex plate. The assay is run in 0.1 M sodium acetate buffer at pH 5.5 in the presence of 1.0 M sodium chloride and 0.05% NP-40 and incubated in the dark for one hour at room temperature. Avidin coated polystyrene beads {40 µl of 0.1% (w/v)} are added and the incubation is continued in the dark for an additional half hour. The labeled cleavage product is separated from the unreacted substrate via filtration and is read on the Idexx Screen Machine. The data are analyzed by appropriate computer algorithms to ascertain percent inhibition values.

Setting [1] is: HIV-1 Dose 1.000 uM, read-out: HIV-1 Protease % Inhib.
Setting [2] is: HIV-1 Dose 10.000 uM, read-out: HIV-1 Protease % Inhib.
The mark [3] stands for this setting: HIV-1 Dose 100.000 uM, read-out: HIV-1 Protease % Inhib.
The mark [4] stands for this setting: read-out: HIV-1 Protease % Inhib.

Each structure is given as a SMILES string. Where a name gives a salt, the structure may show the parent alone. Read-outs that look alike come from different tables or passages of the source.

As to `O=c1oc(CCc2ccccc2)cc(O)c1C(c1ccccc1)C1CC1` (stereo not drawn) [Example 24, 3-(α-cyclopropylbenzyl)-4-hydroxy-6-phenethyl-2H-Pyran-2-one], inhibition was half-maximal at 6300 nM (IC50). The inhibition at 1 µM under setting [1] was < 10%. The inhibition at 10 µM under setting [2] came out at 61.3%. In addition, the inhibition at 100 µM under setting [3] worked out at 105%.

In the case of `CCCC(CCC)c1cc(O)c(C(c2ccccc2)C2CC2)c(=O)o1` (stereo not drawn) [Example 25, 3-(α-cyclopropylbenzyl)-6-(1-propylbutyl)-4-hydroxy-2H-Pyran-2-one], for the setting “read-out: HIV-1 FITC Ki”, the Ki is 41 nM.

In the case of `CCC(c1ccccc1)C1C(=O)CC(CC)(c2ccccc2)OC1=O` (stereo not drawn) [Example 26, 6-Ethyl-3-(α-ethylbenzyl)-6-phenyl-tetrahydropyran-2,4-dione], the Ki came to 163 nM. Under setting [4], the inhibition at 1 µM came to 38.7%, the inhibition at 10 µM was 78.8% and the inhibition at 100 µM is 86.3%.

With `CCC1(CC)CC(=O)C(CCCc2ccccc2)C(=O)O1` (stereo not shown) [Example 27, 6,6-Diethyl-3-(3-phenylpropyl)-tetrahydropyran-2,4-dione], the inhibition at 1 µM under setting [1] was 14.7%. Further, the inhibition at 10 µM under setting [2] was determined as 41.4%. The inhibition at 100 µM under setting [3] is 90.5%.

Take `CCCC1(c2ccccc2)CC(O)=C(C(CC)c2cccc(O)c2)C(=O)O1` (stereo not shown) [Example 30, 5,6-Dihydro-4-hydroxy-6-phenyl-6-propyl-3-[1-(3-hydroxyphenyl)-propyl]-2H-pyran-2-one]: the inhibition at 1 µM under setting [1] amounted to 46.4%. In addition, under setting [2], the inhibition at 10 µM was determined as 86%. For the same compound, under setting [3], the inhibition at 100 µM is 75.7%.

For `CCC(C1=C(O)CC(c2ccccc2)(C2CCCCC2)OC1=O)c1cccc(O)c1` (stereo not shown) [Example 31, 5,6-Dihydro-4-hydroxy-6-cyclohexyl-6-phenyl-3-[1-(3-hydroxyphenyl)propyl]-2H-pyran-2-one], the inhibition constant Ki was 610 nM. In addition, under setting [4], the inhibition at 1 µM amounted to 18.7%, the inhibition at 10 µM came to 81% and the inhibition at 100 µM stood at 86%.

Compound `CCCC1(c2ccccc2)CC(O)=C(C(CC)c2ccccc2)C(=O)O1` (stereo not shown) [Example 32, 5,6-Dihydro-4-hydroxy-6-phenyl-6-propyl-3-(1-phenylpropyl)-2H-pyran-2-one] returned a Ki of 250 nM. Moreover, under setting [4], the inhibition at 1 µM was determined as 56.1%, the inhibition at 10 µM is 106% and the inhibition at 100 µM is 93.1%.

As to `CCC(C1=C(O)CC2(CCCCC2)OC1=O)c1ccccc1` (stereo not shown) [Example 33, 4-Hydroxy-1-oxa-3-(1-phenylpropyl)spiro-[5,5]-undec-3-en-2-one, sodium salt], under setting [4], the inhibition at 1 µM turned out to be 10.2%, the inhibition at 10 µM came to 68.5% and the inhibition at 100 µM is 80.7%.

With `C=CC(c1ccccc1)C1C(=O)CC(C)(c2ccccc2)OC1=O` (stereo not shown) [Example 34, Dihydro-6-methyl-6-phenyl-3-(1-phenyl-2-propenyl)-2H-Pyran-2,4(3H)-dione], the inhibition at 1 µM under setting [1] is < 10%. Moreover, the inhibition at 10 µM under setting [2] was 56.5%. Besides, the inhibition at 100 µM under setting [3] amounted to 67.9%. Moreover, the Ki (read-out: HIV-1 FITC Ki) was 625 nM.

In the case of `CCCC1(c2ccccc2)CC(=O)C(C(CC)c2cccc(O)c2)C(=O)O1` (stereo not shown) [Example 35, Dihydro-3-(1-(3-hydroxyphenyl)propyl]-6-phenyl-6-propyl-2H-pyran-2,4(3H)-dione], the inhibition at 1 µM under setting [1] was 23.8%. For the same compound, the inhibition at 10 µM under setting [2] was 79.8%. For the same compound, the inhibition at 100 µM under setting [3] was 73.6%.

`CCC(Cc1ccccc1)c1cc(O)c(C(c2cccc(NC(=O)OCc3ccccc3)c2)C2CC2)c(=O)o1` (stereo not drawn) [Example 36, 3-(α-Cyclopropyl-meta-(benzyloxycarbonylamino)benzyl)-6-(α-ethyl-phenethyl)-4-hydroxy-2H-pyran-2-one]: under setting [4], the inhibition at 0.41 µM was < 10%, the inhibition at 1.23 µM amounted to 13.7%, the inhibition at 3.7 µM stood at 43.4% and the inhibition at 11 µM was determined as 73.7%. In addition, the inhibition at 33 µM under setting [4] turned out to be 77.2%. For the same compound, the inhibition at 100 µM under setting [3] came out at 87.5%.

Turning to `O=C(CCn1ccc2ccccc21)Nc1cccc(C(c2c(O)cc(C(CC3CC3)CC3CC3)oc2=O)C2CC2)c1` (stereo not shown) [Example 39, N-(3-(Cyclopropyl-[6-(2-cyclopropyl-1-cyclopropylmethyl-ethyl)-4-hydroxy-2-oxo-2H-pyran-3-yl]-methyl)-phenyl)-3-indol-1-yl-propionamide], the inhibition at 0.123 µM (HIV-1 Dose 0.123 uM, read-out: HIV-1 Protease % Inhib) was < 10%. Moreover, the inhibition at 0.37 µM (HIV-1 Dose 0.370 uM, read-out: HIV-1 Protease % Inhib) was 24.8%. Besides, the inhibition at 1.1 µM (HIV-1 Dose 1.100 uM, read-out: HIV-1 Protease % Inhib) was found to be 60.6%. The inhibition at 3.3 µM (HIV-1 Dose 3.300 uM, read-out: HIV-1 Protease % Inhib) stood at 86.3%. Moreover, the inhibition at 10 µM under setting [2] was determined as 91.8%. In addition, the inhibition at 30 µM (HIV-1 Dose 30.000 uM, read-out: HIV-1 Protease % Inhib) stood at 94.5%. The Ki (read-out: HIV-1 FITC Ki) turned out to be 96 nM.

`CCCC(CCC)c1cc(O)c(C(CC)c2ccccc2)c(=O)o1` (stereo not shown) [Example 40, 4-Hydroxy-3-(1-phenyl-propyl)-6-(1-propyl-butyl)-pyran-2-one]: under setting [1], the inhibition at 1 µM is 37.2%. For the same compound, the inhibition at 10 µM under setting [2] was found to be 79.5%. Moreover, the inhibition at 100 µM under setting [3] came to 80%.

For the compound `C=CC(c1ccccc1)c1c(O)cc(C(CCC)CCC)oc1=O` (stereo not shown) [Example 41, 4-Hydroxy-3-(1-phenyl-allyl)-6-(1-propyl-butyl)-pyran-2-one], the inhibition at 1 µM under setting [1] was 21.2%. Moreover, the inhibition at 10 µM under setting [2] was 65.9%. Under setting [3], the inhibition at 100 µM worked out at 80.9%.

With `CC(C)(C)OC(=O)CCc1cc(O)c(C(c2ccccc2)C2CC2)c(=O)o1` (stereo not shown) [Example 42, 3-(5-(Cyclopropyl-phenyl-methyl)-4-hydroxy-6-oxo-6H-pyran-2-yl)-propionic acid tert-butyl ester], under setting [1], the inhibition at 1 µM was determined as 19.7%. The inhibition at 10 µM under setting [2] was 74.7%. The inhibition at 100 µM under setting [3] worked out at 105%. Also, where the note is “read-out: HIV-1 FITC Ki”, the Ki was determined as 520 nM.

`Cc1noc(C)c1CCc1cc(O)c(C(c2ccccc2)C2CC2)c(=O)o1` (stereo not shown) [Example 43, 3-(Cyclopropyl-phenyl-methyl)-6-(2-(3,5-dimethyl-isoxazol-4-yl)-ethyl)-4-hydroxy-pyran-2-one]: the inhibition at 1 µM under setting [1] came to 44.6%. Besides, the inhibition at 10 µM under setting [2] was determined as 89.4%. Also, the inhibition at 100 µM under setting [3] amounted to 97.3%. Besides, under “read-out: HIV-1 FITC Ki”, the Ki worked out at 460 nM.

For `CC(C)(C)c1nc(CCc2cc(O)c(C(c3ccccc3)C3CC3)c(=O)o2)no1` (stereo not shown) [Example 44, 6-(2-(5-Tert-butyl-(1,2,4)oxadiazol-3-yl)-ethyl)-3-(cyclopropyl-phenyl-methyl)-4-hydroxy-pyran-2-one], under setting [4], the inhibition at 0.41 µM was < 10%, the inhibition at 1.23 µM came out at 24.9%, the inhibition at 3.7 µM was determined as 57.3% and the inhibition at 11 µM came to 84.3%. In addition, the inhibition at 33 µM under setting [4] was 106%. Also, the inhibition at 100 µM under setting [3] was 114%. Also, the Ki (read-out: HIV-1 FITC Ki) was 1840 nM.

As to `CCC(CC1CCOC1)c1cc(O)c(C(c2ccccc2)C2CC2)c(=O)o1` (stereo not shown) [Example 45, 3-(Cyclopropyl-phenyl-methyl)-4-hydroxy-6-(1-(tetrahydro-furan-3-ylmethyl)-propyl)-pyran-2-one], under setting [4], the inhibition at 0.41 µM worked out at 79.3%, the inhibition at 1.23 µM was 94.4%, the inhibition at 3.7 µM stood at 101% and the inhibition at 11 µM amounted to 103%. Further, the inhibition at 33 µM under setting [4] came out at 114%. Moreover, under setting [3], the inhibition at 100 µM came to 116%. Moreover, the Ki (read-out: HIV-1 FITC Ki) amounted to 53 nM.

Consider `O=c1oc(C(Cc2ccccc2)Cc2ccccn2)cc(O)c1C(c1ccccc1)C1CC1` (stereo not shown) [Example 46, 3-(Cyclopropyl-phenyl-methyl)-4-hydroxy-6-(2-phenyl-1-pyridin-2-ylmethyl-ethyl)-pyran-2-one], for which, under setting [4], the inhibition at 0.41 µM was 29.2%, the inhibition at 1.23 µM came to 65%, the inhibition at 3.7 µM came out at 91.6% and the inhibition at 11 µM came to 94.2%. For the same compound, the inhibition at 33 µM under setting [4] stood at 103%. Also, under setting [3], the inhibition at 100 µM was 115%. For the same compound, the Ki (read-out: HIV-1 FITC Ki) turned out to be 313 nM.

As to `O=c1oc(CCC2OCCO2)cc(O)c1C(c1ccccc1)C1CC1` (stereo not shown) [Example 47, 3-(Cyclopropyl-phenyl-methyl)-6-(2-(1,3)dioxolan-2-yl-ethyl)-4-hydroxy-pyran-2-one], under setting [4], the inhibition at 0.41 µM was < 10%, the inhibition at 1.23 µM was determined as 19.4%, the inhibition at 3.7 µM is 50% and the inhibition at 11 µM came to 73.2%. For the same compound, the inhibition at 33 µM under setting [4] worked out at 91.3%. Besides, the inhibition at 100 µM under setting [3] amounted to 107%. In addition, the Ki (read-out: HIV-1 FITC Ki) turned out to be 505 nM.

Consider `O=c1oc(CCCCN2CCOCC2)cc(O)c1C(c1ccccc1)C1CC1` (stereo not shown) [Example 48, 3-(Cyclopropyl-phenyl-methyl)-4-hydroxy-6-(4-morpholin-4-yl-butyl)-pyran-2-one], for which, under setting [4], the inhibition at 0.41 µM was < 10%, the inhibition at 1.23 µM was < 10%, the inhibition at 3.7 µM is < 10% and the inhibition at 11 µM is < 10%. Also, the inhibition at 33 µM under setting [4] came to 31.3%. Further, the inhibition at 100 µM under setting [3] came out at 61.6%.

A word on the IC50: it is the midpoint of a concentration-inhibition curve. Read a high IC50 as a need for much substance. In general, Ki refers to a measure of affinity in units of concentration, obtained from inhibition or displacement.

(Values after patent EP1203770A1 (priority 1992, dated 1994).)
